According to patent publication US11104690B2, “Indazole derivatives useful as inhibitors of diacylglyceride O-acyltransferase 2” (Merck Sharp & Dohme Corp., priority 2016, dated 2021):

Molecular target: Human DGAT2 (Homo sapiens (Human), UniProt Q96PD7)
Assay: DGAT2 Enzymatic Activity Assay (triolein formation, LC/MS/MS)
Format: biochemical
Settings: hDGAT2 Sf-9 membrane prep; 25 μM diolein, 10 μM oleoyl-CoA; room temperature
Description: Sf-9 insect cells were maintained in Grace's insect cell culture medium with 10% heated-inactivated fetal bovine serum, 1% Pluronic F-68 and 0.14 μg/m Kanamycine sulfate in Erlenmeyer flasks at 28° C. in a shaker incubator. After infection with untagged hDGAT2 baculovirus at multiplicity of infection (MOI) 0.1 for 48 hours, cells were harvested. Cell pellets were suspended in buffer containing 10 mM Tris-HC (pH 7.5), 1 mM EDTA (pH 8.0), 250 mM sucrose and Complete Protease Inhibitor Cocktail (Roche Diagnostics Corp., Indianapolis, Ill.), and sonicated on ice. Membrane fractions were isolated by ultracentrifugation (100,000×g pellet), resuspended in the same buffer, and frozen (−80° C.) for later use. The protein concentration was determined with the BCA Protein Assay kit (Pierce Biotechnology Inc., Rockford, Ill.). Expression of protein levels was analyzed by immunoblotting with goat polyclonal DGAT2 antibody C-15 and donkey anti-goat IgG HRP (Santa Cruz Biotechnology, Inc., Santa Cruz, Calif.) followed by detection with ECL reagent (GE Healthcare, Piscataway, N.J.).
LC/MS/MS analyses were performed using Thermal Fisher's LX4-TSQ Vantage system. This system consists of an Agilent binary high-performance liquid chromatography (HPLC) pumps and a TSQ Vantage triple quadrupole MS/MS instrument. For each sample, 2 μL samples from the top organic layer of in-plate liquid-liquid extraction were injected onto a Thermo Betabasic C4 column (2.1 mm×20 mm, 5 μm particle size). The samples were then eluted using the following conditions; mobile phase: MeOH/water with 0.1% ammonium format=92/8 (v/v), flow rate: 1 mL/min, temperature: 25 C. Data was acquired in positive mode using a heated electrospray ionization (HESI) interface. The operational parameters for the TSQ Vantage MS/MS instrument were a spray voltage of 3000 V, capillary temperature of 280° C., vaporizer temperature 400° C., shealth gas 60 arbitrary unit, Aux gas 40 arbitrary units, S-lens 113 and collision gas 0.16 Pascals. […] (SRM) chromatograms of triolein (Q1: 902.9>Q3:602.3) and internal standard ([…]) were collected for 40 sec. The peak area was integrated by Xcalibur Quan software. The ratio between the triolein generated in the reaction and spiked in internal standard was used to generate percentage inhibition and IC50 values. Compound percentage inhibition was calculated by the following formula: Inhibition %=1−[(compound response−low control)/(high control−low control)]×100%. Potent compounds were titrated and IC50 were calculated by 4 parameter sigmoidal curve fitting formula.
DGAT2 activity was determined by measuring the amount of enzymatic product triolein (1,2,3-Tri(cis-9-octadecenoyl)glycerol) using the membrane prep mentioned above. The assay was carried out in deep well 384 plates in a final volume of 40 μL at room temperature. The assay mixture contained the following: assay buffer (100 mM Tris.Cl, pH 7.0, 20 mM MgCl2, 5% ethanol), 25 μM of diolein, 10 μM of oleoyl-CoA and 10 ng/μL of DGAT2 membrane.

Human DGAT2, sequence (Q96PD7 whole entry): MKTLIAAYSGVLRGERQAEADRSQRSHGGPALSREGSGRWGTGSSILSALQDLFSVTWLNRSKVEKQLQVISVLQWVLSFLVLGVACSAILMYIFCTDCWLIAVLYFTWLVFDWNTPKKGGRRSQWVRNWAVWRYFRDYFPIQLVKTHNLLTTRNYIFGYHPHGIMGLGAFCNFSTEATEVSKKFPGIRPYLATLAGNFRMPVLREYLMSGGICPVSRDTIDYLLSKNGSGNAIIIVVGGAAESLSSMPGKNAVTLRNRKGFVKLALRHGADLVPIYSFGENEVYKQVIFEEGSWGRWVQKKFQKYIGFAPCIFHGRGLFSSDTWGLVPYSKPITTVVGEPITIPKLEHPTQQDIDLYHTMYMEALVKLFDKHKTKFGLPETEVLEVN

| Structure (SMILES) | IC50 |
| --- | --- |
| O=C(NC1CC[S+]([O-])C1)c1ccc2c(-c3ccccc3Cl)nn(-c3ccc(F)cc3)c2c1 (single isomer, unassigned) [Example 58-B, 3-(2-chlorophenyl)-1-(4-fluorophenyl)-N-(1-oxidotetrahydrothiophen-3-yl)-1H-indazole-6-carboxamide] | 0.608 µM |
| O=C(NCc1cnsn1)c1ccc2c(-c3ccccc3Cl)nn(-c3ccc(F)cc3)c2c1 [Example 40, 3-(2-chlorophenyl)-1-(4-fluorophenyl)-N-(1,2,5-thiadiazol-3-ylmethyl)-1H-indazole-6-carboxamide] | 0.445 µM |
| O=C(NC1CCS(=O)(=O)C1)c1ccc2c(-c3cccnc3Cl)nn(-c3ccc(F)cc3)c2c1 (single isomer, unassigned) [Example 135-A, 3-(2-chloropyridin-3-yl)-N-(1,1-dioxidotetrahydrothiophen-3-yl)-1-(4-fluorophenyl)-1H-indazole-6-carboxamide] | 0.065 µM |
| COc1cc(C#N)cc(-c2nn(-c3ccc(F)cc3)c3cc(C(=O)NC4(C)CCS(=O)(=O)C4)ccc23)c1F (single isomer, unassigned) [Example 161-B, 3-(5-cyano-2-fluoro-3-methoxyphenyl)-1-(4-fluorophenyl)-N-(3-methyl-1,1-dioxidotetrahydrothiophen-3-yl)-1H-indazole-6-carboxamide] | 0.028 µM |
| CN(C)C(=O)c1cccc(-c2nn(-c3ccc(F)cc3)c3cc(C(=O)NC4(C)CCS(=O)(=O)C4)ccc23)c1 (racemic) [Example 148, 3-[3-(dimethylcarbamoyl)phenyl]-1-(4-fluorophenyl)-N-(3-methyl-1,1-dioxidotetrahydrothiophen-3-yl)-1H-indazole-6-carboxamide] | 0.855 µM |
| COC(=O)C1(NC(=O)c2ccc3c(-c4ccccc4Cl)nn(-c4ccc(F)cc4)c3c2)CCS(=O)(=O)C1 (racemic) [Example 90, methyl 3-({[3-(2-chlorophenyl)-1-(4-fluorophenyl)-1H-indazol-6-yl]carbonyl}amino)tetra-hydrothiophene-3-carboxylate 1,1-dioxide] | 0.09 µM |
| CC(NC(=O)c1ccc2c(-c3ccccc3Cl)nn(-c3ccc(F)cc3)c2c1)c1c[nH]cn1 (racemic) [Example 14, 3-(2-chlorophenyl)-1-(4-fluorophenyl)-N-[1-(1H-imidazol-4-yl)ethyl]-1H-indazole-6-carboxamide] | 0.078 µM |
| C[C@@H]1CC[C@@H](O)[C@H]1NC(=O)c1ccc2c(-c3ccccc3Cl)nn(-c3ccc(F)cc3)c2c1 [Example 72, 3-(2-chlorophenyl)-1-(4-fluorophenyl)-N-[(1S,2R,5R)-2-hydroxy-5-methylcyclopentyl]-1H-indazole-6-carboxamide] | 0.022 µM |
| NC(=O)c1ccc(Cl)c(-c2nn(-c3ccc(F)cc3)c3cc(C(=O)NC4CCS(=O)(=O)C4)ccc23)c1 (single isomer, unassigned) [Example 122-A, 3-(5-carbamoyl-2-chlorophenyl)-N-(1,1-dioxidotetrahydrothiophen-3-yl)-1-(4-fluorophenyl)-1H-indazole-6-carboxamide] | 0.096 µM |
| O=C(NC1CCS(=O)(=O)C1)c1ccc2c(-c3ccccc3Cl)nn(-c3ccc(F)cn3)c2c1 (single isomer, unassigned) [Example 176-A, 3-(2-chlorophenyl)-N-(1,1-dioxidotetrahydrothiophen-3-yl)-1-(5-fluoropyridin-2-yl)-1H-indazole-6-carboxamide] | 0.252 µM |
| O=C(N[C@@H]1CCC[C@@H]1O)c1ccc2c(-c3ccccc3Cl)nn(-c3ccc(F)cc3)c2c1 [Example 115, 3-(2-chlorophenyl)-1-(4-fluorophenyl)-N-[(1R,2S)-2-hydroxycyclopentyl]-1H-indazole-6-carboxamide] | 0.578 µM |
| CC1(NC(=O)c2ccc3c(-c4ccccc4)nn(-c4ccc(F)cc4)c3c2)CCS(=O)(=O)C1 (single isomer, unassigned) [Example 162-A, 1-(4-fluorophenyl)-N-(3-methyl-1,1-dioxidotetrahydrothiophen-3-yl)-3-phenyl-1H-indazole-6-carboxamide] | 0.157 µM |
| CCOC(=O)C1(NC(=O)c2ccc3c(-c4ccccc4Cl)nn(-c4ccc(F)cc4)c3c2)CC1 [Example 62, ethyl 1-({[3-(2-chlorophenyl)-1-(4-fluorophenyl)-1H-indazol-6-yl]carbonyl}amino)cyclopropane carboxylate] | 0.58 µM |
| C[C@H](NC(=O)c1ccc2c(-c3ccccc3Cl)nn(-c3ccc(F)cc3)c2c1)c1ccc(C(F)(F)F)nc1 [Example 13, 3-(2-chlorophenyl)-1-(4-fluorophenyl)-N-{(1S)-1-[6-(trifluoromethyl)pyridin-3-yl]ethyl}-1H-indazole-6-carboxamide] | 0.048 µM |
| CC1(NC(=O)c2ccc3c(-c4cc(C(N)=O)ccc4Cl)nn(-c4ccc(F)cc4)c3c2)CCS(=O)(=O)C1 (single isomer, unassigned) [Example 121-B, 3-(5-carbamoyl-2-chlorophenyl)-1-(4-fluorophenyl)-N-(3-methyl-1,1-dioxidotetrahydrothiophen-3-yl)-1H-indazole-6-carboxamide] | 0.061 µM |
| CC(C)[C@H](NC(=O)c1ccc2c(-c3ccccc3Cl)nn(-c3ccc(F)cc3)c2c1)C(N)=O [Example 95, N-[(1S)-1-carbamoyl-2-methylpropyl]-3-(2-chlorophenyl)-1-(4-fluorophenyl)-1H-indazole-6-carboxamide] | 0.606 µM |
| CC(C)(NC(=O)c1ccc2c(-c3ccccc3Cl)nn(-c3ccc(F)cc3)c2c1)c1ccc(C(F)(F)F)nc1 [Example 28, 3-(2-chlorophenyl)-1-(4-fluorophenyl)-N-{1-methyl-1-[6-(trifluoromethyl)pyridin-3-yl]ethyl}-1H-indazole-6-carboxamide] | 0.093 µM |
| O=C(NC1(CO)CCCC1)c1ccc2c(-c3ccccc3Cl)nn(-c3ccc(F)cc3)c2c1 [Example 43, 3-(2-chlorophenyl)-1-(4-fluorophenyl)-N-[1-(hydroxymethyl)cyclopentyl]-1H-indazole-6-carboxamide] | 0.011 µM |
| CC1(NC(=O)c2ccc3c(-c4cccc(C(N)=O)c4)nn(-c4ccc(F)cc4)c3c2)CCS(=O)(=O)C1 (racemic) [Example 149, 3-(3-carbamoylphenyl)-1-(4-fluorophenyl)-N-(3-methyl-1,1-dioxidotetrahydrothiophen-3-yl)-1H-indazole-6-carboxamide] | 0.249 µM |
| O=C(N[C@@H](CO)c1ccc(C(F)(F)F)nc1)c1ccc2c(-c3ccccc3Cl)nn(-c3ccc(F)cc3)c2c1 [Example 30, 3-(2-chlorophenyl)-1-(4-fluorophenyl)-N-{(1R)-2-hydroxy-1-[6-(trifluoromethyl)pyridin-3-yl]ethyl}-1H-indazole-6-carboxamide] | 0.048 µM |
| O=C(NC1CCS(=O)(=O)C1)c1ccc2c(-c3ccccc3Cl)nn(-c3ccccn3)c2c1 (single isomer, unassigned) [Example 175-A, 3-(2-chlorophenyl)-N-(1,1-dioxidotetrahydrothiophen-3-yl)-1-pyridin-2-yl-1H-indazole-6-carboxamide] | 0.338 µM |
| O=C(NC1(CO)CCOCC1)c1ccc2c(-c3ccccc3Cl)nn(-c3ccc(F)cc3)c2c1 [Example 47, 3-(2-chlorophenyl)-1-(4-fluorophenyl)-N-[4-(hydroxymethyl)tetrahydro-2H-pyran-4-yl]-1H-indazole-6-carboxamide] | 0.047 µM |
